Tests used:
[1] = biological target: FALDH Q445X (without gatekeeper helix) (Homo sapiens, UniProt P51648); assay: fluorometric NADH formation, Michaelis-Menten fit; type: biochemical; conditions: 1 mM NAD, 25 mM sodium pyrophosphate pH 8.0, 0.1% Triton X-100, 37 °C
[2] = biological target: FALDH (K463X) (Homo sapiens, UniProt P51648); assay: fluorometric NADH formation, Michaelis-Menten fit; type: biochemical; conditions: 1 mM NAD, 25 mM sodium pyrophosphate pH 8.0, 0.1% Triton X-100, 37 °C
Chain of FALDH (K463X) (P51648 1-462): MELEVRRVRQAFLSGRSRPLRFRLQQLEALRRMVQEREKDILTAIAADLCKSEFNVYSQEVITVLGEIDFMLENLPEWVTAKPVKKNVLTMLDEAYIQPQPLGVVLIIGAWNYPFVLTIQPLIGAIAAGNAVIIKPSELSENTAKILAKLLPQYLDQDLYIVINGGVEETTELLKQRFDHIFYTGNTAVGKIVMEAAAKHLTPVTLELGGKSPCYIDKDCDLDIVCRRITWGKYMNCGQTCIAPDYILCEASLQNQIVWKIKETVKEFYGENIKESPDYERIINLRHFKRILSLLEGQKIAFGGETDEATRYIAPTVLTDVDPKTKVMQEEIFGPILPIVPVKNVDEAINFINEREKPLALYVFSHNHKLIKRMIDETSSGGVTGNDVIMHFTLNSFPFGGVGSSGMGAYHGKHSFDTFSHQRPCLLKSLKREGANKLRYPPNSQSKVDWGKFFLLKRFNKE

Chain of FALDH Q445X (without gatekeeper helix) (P51648 1-444): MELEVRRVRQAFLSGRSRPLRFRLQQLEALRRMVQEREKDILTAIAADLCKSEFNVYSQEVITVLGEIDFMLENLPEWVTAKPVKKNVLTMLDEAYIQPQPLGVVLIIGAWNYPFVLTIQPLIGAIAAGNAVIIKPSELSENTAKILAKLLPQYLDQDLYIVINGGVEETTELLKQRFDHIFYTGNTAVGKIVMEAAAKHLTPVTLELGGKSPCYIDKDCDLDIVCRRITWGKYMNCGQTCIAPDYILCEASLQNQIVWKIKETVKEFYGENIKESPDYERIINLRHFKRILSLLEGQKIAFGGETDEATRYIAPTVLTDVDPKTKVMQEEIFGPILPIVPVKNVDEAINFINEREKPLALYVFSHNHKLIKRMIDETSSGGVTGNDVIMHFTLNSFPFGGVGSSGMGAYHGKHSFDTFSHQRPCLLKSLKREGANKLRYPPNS

## CCCCCCCCCCCC=O [dodecanal]
[1]
  Vmax/KM: longer fatty aldehydes docecanal (C12) and hexadecanal (C16) were used as substrates
[2]
  Vmax/KM: metabolize octanal, dodecanal and hexadecanal

## CCCCCCCCCCCCCCCC=O [hexadecanal]
[2]
  Vmax/KM: metabolize octanal, dodecanal and hexadecanal

From paper PMC4109017 (Nature Communications, 2014)
